For assay [1], the system named is circBRIP1 in HCT116 cells. Nature of the assay: DHX9 circBRIP1 cellular target engagement TaqMan multiplex assay. The format is cell-based. The settings on record: read-out: DHX9 Cellular Target Engagement. Background: Quantitative PCR measures a nucleic acid by following its amplification.
Assay [2] concerns the target Human recombinant DHX9 protein (Homo sapiens (Human), UniProt Q08211). Nature of the assay: DHX9 ATPase assay (ADP-Glo). The format is biochemical. The settings on record: for IC50: read-out: DHX9 Biochemical Inflection Point. On the technique in general: ADP-Glo turns the ADP formed in a reaction into a luminescent signal.
The subject of the next assay is LS411N cells. In words: DHX9 cellular proliferation assay (CellTiter-Glo), LS411N (CRC-MSI). The settings on record: performed at Pharmaron, read-out: LS411N (CRC-MSI-H) Antiproliferative. The format is cell-based. Background: ATP-based viability assays read luminescence as a measure of living cells.
For the next assay, the system named is NCI-H747 cells. Nature of the assay: DHX9 cellular proliferation assay (CellTiter-Glo), NCI-H747 (CRC-MSS). The settings on record: read-out: H747 (CRC-MSS) Antiproliferative. The format is cell-based.
The test system of assay [3] is circBRIP1 in HCT116 cells. In words: DHX9 circBRIP1 cellular target engagement SYBR Green assay. The format is cell-based.
Where [4] appears, read: Homo sapiens, HCT-116, Taqman assay (*).
Setting [5] is: Homo sapiens, NCI-H747, performed at Pharmaron.
The mark [6] stands for this setting: values marked +, read-out: DHX9 Cellular Target Engagement EC50.
Where [7] appears, read: Homo sapiens, HCT-116, values marked +, read-out: DHX9 Cellular Target Engagement EC50.
Where [8] appears, read: Homo sapiens, HCT-116, SyBr assay (^+), read-out: DHX9 Cellular Target Engagement.

Like-named read-outs stand apart in the source and are kept apart here.

The values below come from patent publication US20240316047A1, “INHIBITORS OF RNA HELICASE DHX9 AND USES THEREOF” (ACCENT THERAPEUTICS, INC., priority 2022, published 2024).

Sequence of Human recombinant DHX9 protein (Q08211 whole entry): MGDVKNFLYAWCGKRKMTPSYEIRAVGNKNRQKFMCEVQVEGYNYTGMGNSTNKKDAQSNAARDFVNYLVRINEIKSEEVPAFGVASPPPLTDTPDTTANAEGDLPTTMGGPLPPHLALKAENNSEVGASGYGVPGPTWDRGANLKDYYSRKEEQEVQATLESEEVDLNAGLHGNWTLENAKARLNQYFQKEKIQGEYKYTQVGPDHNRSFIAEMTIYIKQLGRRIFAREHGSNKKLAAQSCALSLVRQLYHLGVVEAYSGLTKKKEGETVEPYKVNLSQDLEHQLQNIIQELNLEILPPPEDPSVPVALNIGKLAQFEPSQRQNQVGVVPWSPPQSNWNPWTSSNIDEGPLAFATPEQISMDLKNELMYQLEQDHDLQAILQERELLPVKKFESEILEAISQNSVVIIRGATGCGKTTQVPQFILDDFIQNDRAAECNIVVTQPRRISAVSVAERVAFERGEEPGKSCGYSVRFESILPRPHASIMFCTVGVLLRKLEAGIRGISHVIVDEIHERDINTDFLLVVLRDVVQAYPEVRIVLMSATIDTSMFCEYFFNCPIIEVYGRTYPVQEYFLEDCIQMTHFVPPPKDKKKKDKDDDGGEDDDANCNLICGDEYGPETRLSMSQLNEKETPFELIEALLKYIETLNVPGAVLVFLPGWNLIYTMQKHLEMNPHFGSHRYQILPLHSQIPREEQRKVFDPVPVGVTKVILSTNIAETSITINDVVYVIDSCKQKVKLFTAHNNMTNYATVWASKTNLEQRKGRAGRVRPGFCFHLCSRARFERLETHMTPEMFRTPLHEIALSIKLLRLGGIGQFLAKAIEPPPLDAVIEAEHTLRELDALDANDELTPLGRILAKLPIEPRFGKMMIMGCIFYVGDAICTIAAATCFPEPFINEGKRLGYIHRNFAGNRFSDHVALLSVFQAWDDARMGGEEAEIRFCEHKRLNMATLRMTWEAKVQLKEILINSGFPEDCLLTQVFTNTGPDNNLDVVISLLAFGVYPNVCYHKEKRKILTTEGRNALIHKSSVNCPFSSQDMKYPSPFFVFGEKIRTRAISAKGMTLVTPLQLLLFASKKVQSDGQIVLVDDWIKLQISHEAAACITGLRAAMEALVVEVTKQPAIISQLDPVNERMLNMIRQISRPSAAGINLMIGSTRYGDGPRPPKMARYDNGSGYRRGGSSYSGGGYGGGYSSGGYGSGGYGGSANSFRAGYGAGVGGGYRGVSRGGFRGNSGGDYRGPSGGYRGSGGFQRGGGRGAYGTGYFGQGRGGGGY

On to `Cc1sc(C(=O)Nc2cc(Cl)cc(NS(C)(=O)=O)c2)cc1-c1ncccc1OC(C)c1cncc(F)c1` (single isomer, unassigned) [Example 631], for which, in assay [1] (setting [4]), the EC50 was found to be 59.3 nM. The “DHX9 Biochemical Max Inhibition” value in assay [2] is 64.4. The IC50 is 31.2 nM in assay [2]; 156 nM with LS411N cells (Homo sapiens, LS-411N); 4880 nM in the assay with NCI-H747 cells (setting [5]).

Consider `CS(=O)(=O)Nc1cc(Cl)cc(NC(=O)c2cnn(-c3ncccc3OCc3cc(F)cc(F)c3)c2)c1` [Example 187], for which the EC50 in assay [3] (setting [6]) stood at 50.4 nM. In addition, in assay [2], the “DHX9 Biochemical Max Inhibition” value was 82.4% and the IC50 worked out at 3.2 nM.

In the case of `CS(=O)(=O)Nc1cc(Cl)cc(NC(=O)c2cnn(-c3ncccc3OCc3cccc(Br)c3)c2)c1` [Example 231], the EC50 in assay [3] (setting [7]) came out at 203 nM. For the same compound, in assay [2], the “DHX9 Biochemical Max Inhibition” value is recorded as 66.3% and the IC50 came to 49.1 nM.

Turning to `CCc1sc(C(=O)Nc2cc(Cl)cc(NS(C)(=O)=O)c2)cc1-c1ccccn1` [Example 232], the EC50 in assay [3] (setting [7]) worked out at 61 nM. Also, in assay [2], the “DHX9 Biochemical Max Inhibition” value was determined as 77.5% and the IC50 was 20.2 nM.

On to `CS(=O)(=O)Nc1cc(Cl)cc(NC(=O)c2cnn(-c3ncccc3OCc3cc(F)cc(F)c3)c2)c1` [Example 256], for which the EC50 in assay [3] (setting [6]) turned out to be 2030 nM. In assay [2], the “DHX9 Biochemical Max Inhibition” value is 70.1% and the IC50 is 403 nM.

For `Cc1cc(C(=O)Nc2cc(Cl)cc(NS(C)(=O)=O)c2)cn1-c1ncc(N2CCC(F)(F)C2)cc1F` [Example 408], in assay [1] (setting [4]), the EC50 is 67.1 nM. Also, in assay [2], the “DHX9 Biochemical Max Inhibition” value was determined as 63. Also, the IC50 in assay [2] stood at 41.6 nM; in the assay with LS411N cells (Homo sapiens, LS-411N), 215 nM; with NCI-H747 cells (setting [5]) it was 8160 nM.

As for `CS(=O)(=O)Nc1cc(Cl)cc(NC(=O)c2cnn(-c3c(F)cc(F)cc3OCc3cnco3)c2)c1` [Example 429], the EC50 in assay [3] (setting [8]) was 1180 nM. For the same compound, in assay [2], the “DHX9 Biochemical Max Inhibition” value stood at 59.6 and the IC50 was determined as 255 nM.

With `CS(=O)(=O)Nc1cc(F)cc(NC(=O)c2cnn(-c3ccccc3OCc3ccccc3)c2)c1` [Example 430], the EC50 in assay [3] (setting [8]) amounted to 1170 nM. In assay [2], the “DHX9 Biochemical Max Inhibition” value is reported as 74.9 and the IC50 turned out to be 142 nM.

On to `Cc1sc(C(=O)Nc2cc(Cl)cc(NS(C)(=O)=O)c2)cc1-c1ncc(OC(C)C)cc1F` [Example 455], for which the EC50 in assay [1] (setting [4]) amounted to 57.6 nM. In addition, the “DHX9 Biochemical Max Inhibition” value in assay [2] amounted to 67.3. Besides, the IC50 in assay [2] amounted to 34.2 nM; in the assay on LS411N cells (Homo sapiens, LS-411N) it was 88.6 nM; in the assay on NCI-H747 cells (setting [5]), 6780 nM.

Turning to `Cc1sc(C(=O)Nc2cc(Cl)cc(NS(C)(=O)=O)c2)cc1-c1ncc(N2CC(C(F)(F)F)C2)cc1F` [Example 460, N-(3-chloro-5-(methylsulfonamido)phenyl)-4-(3-fluoro-5-(3-(trifluoromethyl)azetidin-1-yl)pyridin-2-yl)-5-methylthiophene-2-carboxamide], the EC50 in assay [1] (Taqman assay (*)) was 58.6 nM. The “DHX9 Biochemical Max Inhibition” value in assay [2] was 60.9. Further, the results for the IC50 (in assay [2]; in the assay with LS411N cells) were 131 nM and 221 nM, respectively.

With `Cc1sc(C(=O)Nc2cc(Cl)cc(NS(C)(=O)=O)c2)cc1-c1ncc(N2CC(C(F)(F)F)C2)cc1F` [Example 477], the EC50 in assay [1] (Taqman assay (*)) was 24.2 nM. Moreover, in assay [2], the “DHX9 Biochemical Max Inhibition” value was 68. Besides, the values for the IC50 (in assay [2]; in the assay with LS411N cells; in the assay with NCI-H747 cells (performed at Pharmaron)) were 46.8 nM, 80.2 nM and 2520 nM, respectively.

As to `CCS(=O)(=O)Nc1cc(Cl)cc(NC(=O)c2cc(-c3ncc(N4CC(F)(F)C4)cc3F)n(C)c2)c1` [Example 517], the EC50 in assay [1] (setting [4]) was 16.8 nM. For the same compound, the “DHX9 Biochemical Max Inhibition” value in assay [2] is 54.1. Besides, the IC50 came to 23.7 nM in assay [2]; 135 nM in the assay on LS411N cells (Homo sapiens, LS-411N); 2220 nM in the assay with NCI-H747 cells (setting [5]).

For the compound `Cc1sc(C(=O)Nc2cc(Cl)cc(NS(C)(=O)=O)c2)cc1-c1ncccc1OC(C)c1cncc(F)c1` (stereo not shown) [Example 630], the “DHX9 Biochemical Max Inhibition” value in assay [2] was 67. Moreover, the IC50 in assay [2] is 22.9 nM; in the assay on NCI-H747 cells (setting [5]), > 10000 nM.

With `Cc1cc(C(=O)Nc2cc(Cl)cc(NS(C)(=O)=O)c2)cn1-c1ccc(N(C)C2CCOC2)cn1` (stereo not shown) [Example 674], in assay [2], the “DHX9 Biochemical Max Inhibition” value is 66.5 and the IC50 turned out to be 3.9 nM. In addition, the IC50 with NCI-H747 cells (setting [5]) was > 10000 nM.

Consider `Cc1cc(C(=O)Nc2cc(Cl)cc(NS(C)(=O)=O)c2)cn1-c1ccc(N(C)C2CCOC2)cn1` (stereo not shown) [Example 675], for which, in assay [3] (SyBr assay (^+), read-out: DHX9 Cellular Target Engagement), the EC50 was 23.2 nM. In addition, the “DHX9 Biochemical Max Inhibition” value in assay [2] is recorded as 71.2. The IC50 in assay [2] is 4.1 nM; with LS411N cells, 121 nM; in the assay on NCI-H747 cells (performed at Pharmaron), > 10000 nM.
